“And” between values parts separate entries of the source, which are not always exact repeats. Equal entries are not always repeated. Where two headings read alike, the source gives them in different places.
Assays:
[1] = biological target: T1, human recombinant adrenergic α2B receptor (Homo sapiens, UniProt P18089); experiment: Radioligand binding, adrenergic α2B ([3H]Rauwolscine); conditions: for Percentage inhibition of ligand binding, Adrenergic α2B / Percentage inhibition of ligand binding, Adrenergic α2B (0.03 μM): 0.03 µM
T1 construct: expressed in transfected cells; host or cells: CHO-K1
T1 sequence (P18089 1-450): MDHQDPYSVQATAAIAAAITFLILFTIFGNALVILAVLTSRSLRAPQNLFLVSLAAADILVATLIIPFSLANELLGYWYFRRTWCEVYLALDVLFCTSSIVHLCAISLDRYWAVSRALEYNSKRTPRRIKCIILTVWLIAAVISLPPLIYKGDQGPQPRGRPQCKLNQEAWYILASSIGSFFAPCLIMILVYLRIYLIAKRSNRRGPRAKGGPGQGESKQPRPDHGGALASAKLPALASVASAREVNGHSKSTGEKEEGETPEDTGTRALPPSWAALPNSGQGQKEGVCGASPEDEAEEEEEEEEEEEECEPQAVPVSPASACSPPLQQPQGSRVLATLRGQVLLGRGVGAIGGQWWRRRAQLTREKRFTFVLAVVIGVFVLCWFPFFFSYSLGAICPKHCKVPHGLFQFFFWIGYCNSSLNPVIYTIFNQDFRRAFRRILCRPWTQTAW
Outline: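 Readout: percent inhibition of specific [3H]Rauwolscine binding, measured by filtration and counting. Conditions: CHO-K1 cell-expressed receptor, 2.5 nM radioligand, 60 min, 25° C, Tris-HCl pH 7.4 buffer with MgCl2, EDTA, BSA. Non-specific binding: 10 μM Prazosin.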

[2] = biological target: T2, human recombinant adrenergic α2A receptor (Homo sapiens, UniProt P08913); experiment: Radioligand binding, adrenergic α2A ([3H]MK-912); conditions: for Percentage inhibition of ligand binding, Adrenergic α2A / Percentage inhibition of ligand binding, Adrenergic α2A (0.1 μM): 0.1 µM
T2 construct: expressed in transfected cells; host or cells: insect Sf9 cells
T2 sequence (P08913 1-465): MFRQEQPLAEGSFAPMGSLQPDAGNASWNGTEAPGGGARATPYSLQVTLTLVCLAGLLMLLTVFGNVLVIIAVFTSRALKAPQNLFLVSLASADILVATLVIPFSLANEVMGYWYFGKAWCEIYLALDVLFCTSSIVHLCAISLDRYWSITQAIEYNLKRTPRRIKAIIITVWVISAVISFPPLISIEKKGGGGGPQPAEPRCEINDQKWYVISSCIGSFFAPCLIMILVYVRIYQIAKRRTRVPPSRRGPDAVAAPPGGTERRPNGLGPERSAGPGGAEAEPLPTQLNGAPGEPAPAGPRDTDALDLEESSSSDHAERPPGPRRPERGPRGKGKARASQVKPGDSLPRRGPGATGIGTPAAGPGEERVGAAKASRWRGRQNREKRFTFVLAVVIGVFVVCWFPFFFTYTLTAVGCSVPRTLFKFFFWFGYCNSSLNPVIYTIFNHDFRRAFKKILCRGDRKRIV
Outline: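 Displacement of 1 nM [3H]MK-912 from receptor produced in insect Sf9 cells was measured after 60 min at 25 °C. Readout: percent inhibition of specific binding.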

[3] = biological target: T3, rat adrenergic α1B receptor (Rattus norvegicus, UniProt P15823); experiment: Radioligand binding, adrenergic α1B ([3H]Prazosin)
T3 construct: rat adrenergic α1B receptor obtained from Wistar Rat liver; from tissue; host or cells: Wistar rat liver
T3 sequence (P15823 1-515): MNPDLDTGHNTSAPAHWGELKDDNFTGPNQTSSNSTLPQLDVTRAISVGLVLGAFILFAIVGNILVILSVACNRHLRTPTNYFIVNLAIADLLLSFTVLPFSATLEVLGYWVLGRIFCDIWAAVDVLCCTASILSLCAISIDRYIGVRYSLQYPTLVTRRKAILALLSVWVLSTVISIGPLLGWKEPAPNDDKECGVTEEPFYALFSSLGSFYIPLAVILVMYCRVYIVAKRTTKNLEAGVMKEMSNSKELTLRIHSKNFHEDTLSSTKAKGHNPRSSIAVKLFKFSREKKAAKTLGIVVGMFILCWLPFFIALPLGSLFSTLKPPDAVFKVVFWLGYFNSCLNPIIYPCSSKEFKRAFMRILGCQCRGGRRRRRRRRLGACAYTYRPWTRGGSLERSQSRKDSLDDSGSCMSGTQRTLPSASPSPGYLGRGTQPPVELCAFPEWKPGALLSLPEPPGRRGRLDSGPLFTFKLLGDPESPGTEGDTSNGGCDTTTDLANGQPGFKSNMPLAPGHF
Outline: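 Specific binding, taken as total minus that remaining with 10 μM phentolamine, is measured after filtration and counting. Rat liver receptor preparation and 0.25 nM [3H]prazosin are incubated with compound in 50 mM Tris-HCl (pH 7.4, 0.5 mM EDTA) at 25° C for 60 min. Activity is reported as percent inhibition.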

[4] = compound at 0.03 μM, [3H]Rauwolscine, repeat assays, each datapoint shown
[5] = compound at 0.1 μM, [3H]MK-912, repeat assays, each datapoint shown
[6] = compound at 0.1 μM, [3H]Prazosin, repeat assays, each datapoint shown, 0.1 µM
[7] = compound at 0.1 μM, [3H]Prazosin, repeat assays, each datapoint shown, read-out: Percentage inhibition of ligand binding, Adrenergic α1B
[8] = read-out: Percentage inhibition of ligand binding, Adrenergic α2B (0.03 μM), compound at 0.03 μM, [3H]Rauwolscine, repeat datapoints each shown
[9] = read-out: Percentage inhibition of ligand binding, Adrenergic α2A (0.1 μM), compound at 0.1 μM, [3H]MK-912, repeat datapoints each shown
[10] = read-out: Percentage inhibition of ligand binding, Adrenergic α1B (0.1 μM), compound at 0.1 μM, [3H]Prazosin, repeat datapoints each shown
[11] = compound at 0.03 μM, [3H]Rauwolscine, repeat datapoints each shown
[12] = compound at 0.1 μM, [3H]MK-912, repeat datapoints each shown
[13] = compound at 0.1 μM, [3H]Prazosin, repeat datapoints each shown, 0.1 µM
[14] = 0.03 μM compound, read-out: Percentage inhibition of ligand binding, Adrenergic α2B
[15] = 0.1 μM compound, read-out: Percentage inhibition of ligand binding, Adrenergic α2A
[16] = 0.1 μM compound, read-out: Percentage inhibition of ligand binding, Adrenergic α1B

SMILES: OC(Cn1c2c(c3cccnc31)CN1CCCC1C2)c1ccncc1 (single isomer, unassigned) [37a]
- Percentage inhibition of ligand binding, Adrenergic α2B [1, 4]: 2%
- Percentage inhibition of ligand binding, Adrenergic α2A [2, 5]: 18%
- Percentage inhibition of ligand binding, Adrenergic α1B [3, 6]: −5%

SMILES: Cc1ccc2c(c1)c1c(n2CC(O)c2ccncc2)C(C)N2CCC1C2 (single isomer, unassigned) [38b]
- Percentage inhibition of ligand binding, Adrenergic α2B [1, 4]: 17%
- Percentage inhibition of ligand binding, Adrenergic α2A [2, 5]: −1%
- Percentage inhibition of ligand binding, Adrenergic α1B [3, 6]: 20%

SMILES: Cc1ccc2c(c1)c1c(n2/C=C/c2ccncc2)CCNC1 [compound 79, 8-methyl-5-(2-(pyridin-4-yl)vinyl)-2,3,4,5-tetrahydro-1H-pyrido[4,3-b]indole]
- inhibition at 0.03 µM ([1]; compound at 0.03 μM, [3H]Rauwolscine, repeat assays, each datapoint shown, read-out: Percentage inhibition of ligand binding, Adrenergic α2B): 77%
- inhibition at 0.1 µM ([2]; compound at 0.1 μM, [3H]MK-912, repeat assays, each datapoint shown, read-out: Percentage inhibition of ligand binding, Adrenergic α2A): 19%
- inhibition at 0.1 µM [3, 7]: 34%

SMILES: Cc1ccc(CCn2c3c(c4c(Cl)ccc(F)c42)CN(C)CC3)cn1 [II-248, 9-chloro-6-fluoro-2,3,4,5-tetrahydro-2-methyl-5-(2-(6-methylpyridin-3-yl)ethyl)-1H-pyrido[4,3-b]indole]
- inhibition at 0.03 µM [1, 8]: 5%
- inhibition at 0.1 µM [2, 9]: 88%
- inhibition at 0.1 µM [3, 10]: 4%

SMILES: CCC1c2c(c3cc(C)ccc3n2CC(O)c2ccncc2)C2CCN1C2 (single isomer, unassigned) [36a]
- Percentage inhibition of ligand binding, Adrenergic α2B [1, 4]: 33%
- Percentage inhibition of ligand binding, Adrenergic α2A [2, 5]: 8%
- inhibition at 0.1 µM [3, 7]: 14%

SMILES: Cc1ccc2c(c1)c1c(n2CC(N)c2ccncc2)CCN(C)CC1 (single isomer, unassigned) [154a, 2-(3,9-dimethyl-2,3,4,5-tetrahydroazepino[4,5-b]indol-6(1H)-yl)-1-(pyridin-4-yl)ethanamine]
- Percentage inhibition of ligand binding, Adrenergic α2B (0.03 μM) [1, 11]: 31%
- Percentage inhibition of ligand binding, Adrenergic α2A (0.1 μM) [2, 12]: 4%
- Percentage inhibition of ligand binding, Adrenergic α1B (0.1 μM) [3, 13]: 39%

SMILES: Cc1cnc2c(c1)c1c(n2CCc2cnc(C)nc2)CCN2CCCC12 (single isomer, unassigned) [IV-93b]
- Percentage inhibition of ligand binding, Adrenergic α2B (0.03 μM) [1, 11]: 44%
- Percentage inhibition of ligand binding, Adrenergic α2A (0.1 μM) [2, 12]: −1%
- Percentage inhibition of ligand binding, Adrenergic α1B (0.1 μM) [3, 13]: 65%

SMILES: OC(Cn1c2c(c3cccnc31)C1CCCN1CC2)c1ccncc1 (stereo not shown) [II-79]
- inhibition at 0.03 µM [1, 14]: 59%
- inhibition at 0.1 µM [2, 15]: 0%
- inhibition at 0.1 µM [3, 16]: 7%

SMILES: Cc1ccc2c(c1)c1c(n2CC(O)c2cnc[nH]2)CCN2CCCC12 (stereo not shown) [II-140, 1-(1H-imidazol-5-yl)-2-(10-methyl-2,3,5,6-tetrahydro-1H-indolizino[7,8-b]indol-7(11cH)-yl)ethanol]
- inhibition at 0.03 µM [1, 8]: 72%
- inhibition at 0.1 µM [2, 9]: 3%
- inhibition at 0.1 µM [3, 10]: 53%

SMILES: CN1CCc2c(n(CC(O)c3ccncc3)c3ccc(Cl)cc23)CC1 (stereo not shown) [compound 15, 2-(9-chloro-3-methyl-2,3,4,5-tetrahydroazepino[4,5-b]indol-6(1H)-yl)-1-(pyridin-4-yl)ethanol]
- Percentage inhibition of ligand binding, Adrenergic α2B [1, 4]: 93%
- Percentage inhibition of ligand binding, Adrenergic α2A [2, 5]: 19%
- inhibition at 0.1 µM [3, 7]: 93%

SMILES: Cc1ccc2c(c1)c1c(n2CC(C)(O)c2cccnc2)CCNC1 (single isomer, unassigned) [24b]
- Percentage inhibition of ligand binding, Adrenergic α2B [1, 4]: 29%
- Percentage inhibition of ligand binding, Adrenergic α2A [2, 5]: 15%
- Percentage inhibition of ligand binding, Adrenergic α1B ([3]; compound at 0.1 μM, [3H]Prazosin, repeat assays, each datapoint shown): 8%

SMILES: C/C(=C\n1c2c(c3cc(C)ccc31)CN(C)CC2)c1ccncc1 [II-2]
- inhibition at 0.03 µM [1, 14]: 96%
- inhibition at 0.1 µM [2, 15]: 49%
- inhibition at 0.1 µM [3, 16]: 74%

SMILES: Cc1ccc2c(c1)c1c(n2CC(O)c2ccncc2)C(C)N(C)CC1 (stereo not shown) [II-73]
- inhibition at 0.03 µM [1, 14]: 33%
- inhibition at 0.1 µM [2, 15]: 28%
- inhibition at 0.1 µM [3, 16]: 34%

SMILES: CN1CCc2c(c3cc(Cl)ccc3n2CC(C)(O)c2ccc(C(F)(F)F)nc2)C1 (single isomer, unassigned) [143b]
- Percentage inhibition of ligand binding, Adrenergic α2B (0.03 μM) [1, 11]: 49%
- Percentage inhibition of ligand binding, Adrenergic α2A (0.1 μM) [2, 12]: 0%
- Percentage inhibition of ligand binding, Adrenergic α1B (0.1 μM) [3, 13]: 17%

SMILES: Cc1ccc2c(c1)c1c(n2CC(O)c2ccc(C(N)=O)cc2)CCN(C)C1 (stereo not shown) [compound 139, 4-[2-(2,8-dimethyl-1,2,3,4-tetrahydro-pyrido[4,3-b]indol-5-yl)-1-hydroxy-ethyl]-benzamide]
- Percentage inhibition of ligand binding, Adrenergic α2B (0.03 μM) [1, 11]: 59% and 83%
- Ki ([1]; read-out: Ki α2B): 8.12 nM
- inhibition at 0.1 µM ([1]; read-out: Percentage inhibition of ligand binding, Adrenergic α2B (0.1 μM), compound at 0.1 μM, [3H]Rauwolscine, repeat datapoints each shown): 87%
- Ki [2]: 390 nM
- Percentage inhibition of ligand binding, Adrenergic α2A (0.1 μM) [2, 12]: −2%
- Percentage inhibition of ligand binding, Adrenergic α1B (0.1 μM) [3, 13]: 72%
- inhibition at 0.03 µM ([3]; read-out: Percentage inhibition of ligand binding, Adrenergic α1B (0.03 μM), compound at 0.03 μM, [3H]Prazosin, repeat datapoints each shown): 46%

SMILES: Cc1ccc2c(c1)c1c(n2CC(CC(=O)C(C)(C)C)c2ccncc2)CCN(C)C1 (stereo not shown) [II-222, 6-(2,8-dimethyl-1,2,3,4-tetrahydro-pyrido[4,3-b]indol-5-yl)-2,2-dimethyl-5-pyridin-4-yl-hexan-3-one]
- inhibition at 0.03 µM [1, 8]: 99%
- inhibition at 0.1 µM [2, 9]: 26%
- inhibition at 0.1 µM [3, 10]: 19%

SMILES: Cc1cnc2c(c1)c1c(n2CCc2cccnc2)CCN2CCCC12 (stereo not shown) [134a, 9-methyl-6-(2-pyridin-3-yl-ethyl)-2,3,4,5,6,10c-hexahydro-1H-3a,6,7-triaza-cyclopenta[c]fluorene]
- inhibition at 0.03 µM [1, 8]: 42%
- inhibition at 0.1 µM [2, 9]: 4%
- inhibition at 0.1 µM [3, 10]: 27%

From US8791132B2, “Compounds and methods for treatment of hypertension” (Medivation Technologies, Inc., priority 2011, dated 2014)
